Experimental data published in PubChem BioAssay (NCI).
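Exposure lasted 48 hours, with cells grown in 96-well plates and compounds tested at five concentrations. GI50 is the concentration that inhibits growth by half. TGI: total growth inhibition.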

Tests used:
Experiment in all cases: DTP human tumour cell line panel, 48 h
[1] = tested on: 786-0 renal
[2] = tested on: NCI-H522 lung
[3] = tested on: T-47D breast
[4] = tested on: SK-MEL-28 melanoma
[5] = tested on: OVCAR-8 ovarian
[6] = tested on: HOP-62 NSCLC
[7] = tested on: NCI-H460 lung
[8] = tested on: MDA-MB-435
[9] = tested on: HCC-2998 colon
[10] = tested on: M14 melanoma
[11] = tested on: KM12 colon
[12] = tested on: SF-539 CNS
[13] = tested on: OVCAR-3 ovarian
[14] = tested on: SNB-19 CNS
[15] = tested on: HL-60(TB) leukemia
[16] = tested on: PC-3 prostate
[17] = tested on: MOLT-4 leukemia
[18] = tested on: SK-MEL-5 melanoma
[19] = tested on: SW-620 colon
[20] = tested on: K-562 leukemia
[21] = tested on: NCI-H226 lung
[22] = tested on: LOX IMVI melanoma
[23] = tested on: SF-268 CNS
[24] = tested on: SF-295 CNS
[25] = tested on: MDA-MB-231 breast
[26] = tested on: SK-MEL-2 melanoma
[27] = tested on: U251 CNS
[28] = tested on: ACHN renal
[29] = tested on: CCRF-CEM leukemia
[30] = tested on: RPMI-8226 leukemia
[31] = tested on: CAKI-1 renal
[32] = tested on: UACC-257 melanoma
[33] = tested on: IGROV1 ovarian
[34] = tested on: RXF 393 renal
[35] = tested on: HS 578T breast
[36] = tested on: OVCAR-4 ovarian
[37] = tested on: BT-549 breast
[38] = tested on: NCI-H23 lung
[39] = tested on: OVCAR-5 ovarian
[40] = tested on: SK-OV-3 ovarian
[41] = tested on: HCT-116 colon
[42] = tested on: SN12C renal
[43] = tested on: MALME-3M melanoma
[44] = tested on: COLO 205 colon
[45] = tested on: A549 NSCLC
[46] = tested on: TK-10 renal
[47] = tested on: NCI/ADR-RES ovarian
[48] = tested on: HOP-92 NSCLC
[49] = tested on: A498 renal
[50] = tested on: MCF7 breast
[51] = tested on: UACC-62 melanoma
[52] = tested on: HT29 colon
[53] = tested on: UO-31 renal
[54] = tested on: DU-145 prostate
[55] = tested on: HCT-15 colon
[56] = tested on: SR leukemia

`CCc1ccc(/C(C#N)=C/C=C/c2ccccc2)cc1` was tested, and the GI50 [1] was 11.1 µM, the TGI [1] was > 100 µM and the GI50 [2] was 2.04 µM. For the same compound, the TGI [2] was 14.7 µM, the GI50 [3] was 2.4 µM and the TGI [3] was > 100 µM. The GI50 [4] was 7.12 µM, the TGI [4] was > 100 µM and the GI50 [5] was 5 µM. The TGI [5] was > 100 µM, the GI50 [6] was 2.83 µM and the TGI [6] was > 100 µM. For the same compound, the GI50 [7] was 3.35 µM, the TGI [7] was > 42.7 µM and the GI50 [8] was 0.299 µM. The TGI [8] was 1.16 µM, the GI50 [9] was 6.65 µM and the TGI [9] was 68.3 µM. The GI50 [10] was 2.24 µM, the TGI [10] was > 100 µM and the GI50 [11] was 1.61 µM. The TGI [11] was > 100 µM, the GI50 [12] was 1.52 µM and the TGI [12] was 4.69 µM. It also gave a GI50 [13] of 2.46 µM, a TGI [13] of 13.6 µM and a GI50 [14] of 6.88 µM. The TGI [14] was > 100 µM, the GI50 [15] was 2.54 µM and the TGI [15] was > 62.9 µM. For the same compound, the GI50 [16] was 3.15 µM, the TGI [16] was > 100 µM and the GI50 [17] was 6.87 µM. The TGI [17] was > 83.9 µM, the GI50 [18] was 1.09 µM and the TGI [18] was 26.2 µM. For the same compound, the GI50 [19] was 1.22 µM, the TGI [19] was > 100 µM and the GI50 [20] was 0.882 µM. For the same compound, the TGI [20] was > 100 µM, the GI50 [21] was 17.2 µM and the TGI [21] was > 100 µM. For the same compound, the GI50 [22] was 10.5 µM, the TGI [22] was > 100 µM and the GI50 [23] was 19.3 µM. For the same compound, the TGI [23] was > 100 µM, the GI50 [24] was 2.51 µM and the TGI [24] was 10.5 µM. The GI50 [25] was 5.84 µM, the TGI [25] was > 76.7 µM and the GI50 [26] was 4.92 µM. The TGI [26] was > 100 µM, the GI50 [27] was 3.16 µM and the TGI [27] was > 100 µM. The GI50 [28] was 8.41 µM, the TGI [28] was > 100 µM and the GI50 [29] was 3.11 µM. The TGI [29] was > 100 µM, the GI50 [30] was 3.41 µM and the TGI [30] was > 69 µM. The GI50 [31] was 10.1 µM, the TGI [31] was > 100 µM and the GI50 [32] was > 83.5 µM. For the same compound, the TGI [32] was > 100 µM, the GI50 [33] was 7.55 µM and the TGI [33] was > 100 µM. It also gave a GI50 [34] of 1.29 µM, a TGI [34] of 4.09 µM and a GI50 [35] of 5.25 µM. The TGI [35] was > 100 µM, the GI50 [36] was 18.4 µM and the TGI [36] was > 100 µM. For the same compound, the GI50 [37] was 7.86 µM, the TGI [37] was > 59.8 µM and the GI50 [38] was 6.24 µM. The TGI [38] was > 100 µM, the GI50 [39] was 7.06 µM and the TGI [39] was > 100 µM. The GI50 [40] was 3.08 µM, the TGI [40] was > 29.3 µM and the GI50 [41] was 1.93 µM. For the same compound, the TGI [41] was > 100 µM, the GI50 [42] was 10.6 µM and the TGI [42] was > 100 µM. The GI50 [43] was 6.05 µM, the TGI [43] was > 100 µM and the GI50 [44] was 1.83 µM. For the same compound, the TGI [44] was 5.91 µM, the GI50 [45] was 2.62 µM and the TGI [45] was > 100 µM. The GI50 [46] was 5.79 µM, the TGI [46] was > 100 µM and the GI50 [47] was 2.21 µM. For the same compound, the TGI [47] was > 100 µM, the GI50 [48] was 2.28 µM and the TGI [48] was 78.8 µM. For the same compound, the GI50 [49] was 2.19 µM, the TGI [49] was 39.3 µM and the GI50 [50] was 1.14 µM. The TGI [50] was > 100 µM, the GI50 [51] was 3.48 µM and the TGI [51] was > 100 µM. The GI50 [52] was 1.38 µM, the TGI [52] was 9.41 µM and the GI50 [53] was 19.2 µM. For the same compound, the TGI [53] was > 100 µM, the GI50 [54] was 4.22 µM and the TGI [54] was > 48.4 µM. The GI50 [55] was 0.897 µM, the TGI [55] was > 83.9 µM and the GI50 [56] was 0.644 µM. The TGI [56] was > 61.4 µM.
